Experimental data: US20170037028A1 (BAYER PHARMA AKTIENGESELLSCHAFT, priority 2013, published 2017)

biological target: T1, GLUT1 (Homo sapiens, UniProt P11166); assay: Indirect measurement of GLUT1 activity by quantification of intracellular ATP levels (glucose induced ATP increase); type: cell-based; set-up: endogenous in cells; host or cells: DLD1 or CHO-K1; conditions: read-out: IC50 regarding glucose induced ATP increase (GLUT1 inhibition)
T1 sequence (P11166 1-492): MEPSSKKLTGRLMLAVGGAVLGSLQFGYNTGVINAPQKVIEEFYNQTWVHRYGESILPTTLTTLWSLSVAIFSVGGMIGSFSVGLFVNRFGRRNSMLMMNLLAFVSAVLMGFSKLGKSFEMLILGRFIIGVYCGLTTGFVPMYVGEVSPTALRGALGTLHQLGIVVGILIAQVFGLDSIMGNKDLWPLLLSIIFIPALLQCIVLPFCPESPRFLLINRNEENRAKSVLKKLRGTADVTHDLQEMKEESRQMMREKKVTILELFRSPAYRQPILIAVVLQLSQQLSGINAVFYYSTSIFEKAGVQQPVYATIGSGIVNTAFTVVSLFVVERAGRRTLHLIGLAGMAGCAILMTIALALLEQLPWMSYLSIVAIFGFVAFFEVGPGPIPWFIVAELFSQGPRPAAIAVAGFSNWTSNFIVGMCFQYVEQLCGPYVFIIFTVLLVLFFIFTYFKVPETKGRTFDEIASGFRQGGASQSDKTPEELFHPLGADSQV
Text: Indirect Measurement of GLUT1 and GLUT2 Activity by Quantification of Intracellular ATP Levels
It is well known that a combination of small-molecule inhibitors of mitochondrial electron transport chain and glucose catabolism synergistically suppress ATP production and impair cellular viability (Ulanovskaya et al., 2008, 2011; Liu, et al. 2001). We therefore used DLD1 or CHO-K1 cells in combination with an oxidative phosphorylation inhibitor to identify GLUT1 and GLUT2 inhibitors. Cell lines were maintained in DMEM medium supplemented with 10% FCS and 1% Penicillin-Streptomycin solution and 2% Glutamax. The cells were treated with trypsin and seeded into 384 plates at a density of 4000 cells/well. The cells were then cultured overnight in glucose free media containing 1% FCS to reduce intracellular ATP levels. […] The CellTiter-Glo® Luminescent Cell Viability Assay from Promega was then used to measure ATP Levels.

| Compound | IC50 [nM] |
| --- | --- |
| Cc1nn(CC2CCN(C(=O)OC(C)(C)C)CC2)c(C)c1NC(=O)c1cc(C(N)=O)nc2ccccc12 [Example 405, tert-butyl 4-[(4-{[(2-carbamoylquinolin-4-yl)carbonyl]amino}-3,5-dimethyl-1H-pyrazol-1-yl)methyl]piperidine-1-carboxylate] | 242 |
| CSc1cc(C(=O)Nc2c(C(F)(F)F)nn(Cc3ccc(C#N)cc3)c2C)c2ccccc2n1 [Example 382, N-[1-(4-cyanobenzyl)-5-methyl-3-(trifluoromethyl)-1H-pyrazol-4-yl]-2-(methylsulfanyl)quinoline-4-carboxamide] | 26.1 |
| Cc1nn(Cc2c(F)cccc2F)c(C)c1NC(=O)c1cc(C(N)=O)nc2cc(F)ccc12 [Example 1631] | 6.5 |
| COc1cc(C#N)ccc1Cn1nc(C)c(NC(=O)c2cc(C(N)=O)nc3cc(F)ccc23)c1C [Example 1649] | 67.2 |
| Cc1c(NC(=O)c2cc(C(N)=O)nc3cc(F)c(Cl)cc23)c(C(F)(F)F)nn1Cc1ccc(F)cc1F [Example 1441] | 6.5 |
| COc1cc(C(=O)Nc2c(C)nn(Cc3ccc(OC)c(F)c3)c2C)c2ccccc2n1 [Example 239, N-[1-(3-fluoro-4-methoxybenzyl)-3,5-dimethyl-1H-pyrazol-4-yl]-2-methoxyquinoline-4-carboxamide] | 2.9 |
| CNS(=O)(=O)c1cc(C(=O)Nc2c(C(F)(F)F)nn(Cc3ccc(C#N)cc3)c2C)c2ccccc2n1 [Example 1574] | 49.3 |
| Cc1nn(Cc2ccc(CC#N)cc2)c(C)c1NC(=O)c1cc(C(N)=O)nc2cccc(F)c12 [Example 1612] | 2.4 |
| Cc1cc(F)ccc1Cn1nc(C(F)(F)F)c(NC(=O)c2cc(C(N)=O)nc3ccccc23)c1C [Example 1713] | 5 |
| Cc1nn(Cc2cc(C(C)C)no2)c(C)c1NC(=O)c1cc(C(N)=O)nc2cc(F)ccc12 [Example 1563] | 35.5 |
| CCc1nc(Cn2nc(C(F)(F)F)c(NC(=O)c3cc(C(N)=O)nc4cc(F)ccc34)c2C)no1 [Example 1548] | 26.5 |
| Cc1cc(Cn2nc(C)c(NC(=O)c3cc(C(N)=O)nc4cc(F)c(Cl)cc34)c2C)on1 [Example 411, 6-chloro-N^4-{3,5-dimethyl-1-[(3-methyl-1,2-oxazol-5-yl)methyl]-1H-pyrazol-4-yl}-7-fluoroquinoline-2,4-dicarboxamide] | 1.1 |
| Cc1nn(CCc2ccc(F)cc2)c(C)c1NC(=O)c1cc(C(N)=O)nc2ccccc12 [Example 1100] | 42.1 |
| Cc1cc(Cn2nc(C)c(NC(=O)c3cc(C(N)=O)nc4cc(F)c(Cl)cc34)c2C)ccc1C#N [Example 1696] | 0.9 |
| COc1ccc(CCCn2nc(C)c(NC(=O)c3cc(C(N)=O)nc4ccccc34)c2C)cc1 [Example 284, N^4-{1-[3-(4-methoxyphenyl)propyl]-3,5-dimethyl-1H-pyrazol-4-yl}quinoline-2,4-dicarboxamide] | 9 |
| Cc1c(NC(=O)c2cc(C(N)=O)nc3cc(F)c(Cl)cc23)c(C(F)(F)F)nn1Cc1cccc(C#N)n1 [Example 1689] | 30.9 |
| COc1ccc(Cn2nc(C)c(NC(=O)c3cc(C(N)=O)nc4ccccc34)c2C)cn1 [Example 282, N^4-{1-[(6-methoxypyridin-3-yl)methyl]-3,5-dimethyl-1H-pyrazol-4-yl}quinoline-2,4-dicarboxamide] | 3.2 |
| Cc1c(NC(=O)c2cc(C(N)=O)nc3cccc(F)c23)c(C(F)(F)F)nn1Cc1ncc(C#N)cn1 [Example 424, N^4-{1-[(5-cyanopyrimidin-2-yl)methyl]-5-methyl-3-(trifluoromethyl)-1H-pyrazol-4-yl}-5-fluoroquinoline-2,4-dicarboxamide] | 6.7 |
| COc1cc(C(=O)Nc2c(C)nn(Cc3ccccc3)c2C)c2ccccc2n1 [Example 65, N-(1-benzyl-3,5-dimethyl-1H-pyrazol-4-yl)-2-methoxyquinoline-4-carboxamide] | 133 |
| Cc1c(NC(=O)c2cc(C(N)=O)nc3cccc(F)c23)c(C(F)(F)F)nn1Cc1cccc(C#N)n1 [Example 1688] | 86.8 |
| Cc1nn(Cc2ccc(F)cc2F)c(C)c1NC(=O)c1cc(C(N)=O)nc2cc(F)ccc12 [Example 1487] | 1.2 |
| Cc1nn(Cc2ccccc2C#N)c(C)c1NC(=O)c1cc(C(N)=O)nc2cc(F)c(Cl)cc12 [Example 215, 6-chloro-N^4-[1-(2-cyanobenzyl)-3,5-dimethyl-1H-pyrazol-4-yl]-7-fluoroquinoline-2,4-dicarboxamide] | 1.6 |
| Cc1nn(Cc2ccc(F)cc2)c(C)c1NC(=O)c1cc(C(N)=O)nc2c(Cl)cc(Cl)cc12 [Example 127, 6,8-dichloro-N^4-[1-(4-fluorobenzyl)-3,5-dimethyl-1H-pyrazol-4-yl]quinoline-2,4-dicarboxamide] | 3.1 |
| Cc1nn(CC2CNC(=O)O2)c(C)c1NC(=O)c1cc(C(N)=O)nc2ccccc12 (centres unmarked) [Example 1347] | 3950 |
| COc1cc(C(=O)Nc2c(C)nn(Cc3c(F)cc(F)cc3F)c2C)c2ccccc2n1 [Example 50, N-[3,5-dimethyl-1-(2,4,6-trifluorobenzyl)-1H-pyrazol-4-yl]-2-methoxyquinoline-4-carboxamide] | 50 |
| Cc1c(NC(=O)c2cc(C(F)(F)F)nc3c(Cl)cc(Cl)cc23)c(C(F)(F)F)nn1Cc1ccc(F)cc1F [Example 205, 6,8-dichloro-N-[1-(2,4-difluorobenzyl)-5-methyl-3-(trifluoromethyl)-1H-pyrazol-4-yl]-2-(trifluoromethyl)quinoline-4-carboxamide] | 613 |

Continued, values first:

| IC50 [nM] | Compound |
| --- | --- |
| 6250 | COc1cc(C(=O)Nc2c(C)nn(Cc3cc(F)cc(F)c3)c2C)c2ccccc2n1 [Example 1284] |
| 5.5 | Cc1nn(Cc2ccc(OC(F)(F)F)cc2)c(C)c1NC(=O)c1cc(C(N)=O)nc2ccc(Br)cc12 [Example 1464] |
| 19.2 | Cc1nn(Cc2ccc(C(=O)NCCC(N)=O)cc2)c(C)c1NC(=O)c1cc(C(F)(F)F)nc2ccc(Br)cc12 [Example 1067] |
| 9.2 | Cc1nn(Cc2ncccc2C#N)c(C)c1NC(=O)c1cc(C(F)(F)F)nc2ccc(Br)cc12 [Example 234, 6-bromo-N-{1-[(3-cyanopyridin-2-yl)methyl]-3,5-dimethyl-1H-pyrazol-4-yl}-2-(trifluoromethyl)quinoline-4-carboxamide] |
| 6020 | Cc1nn(CCc2cccc(F)c2)c(C)c1NC(=O)c1cc(C(F)(F)F)nc2ccc(Br)cc12 [Example 1282] |
| 3410 | COc1ccccc1Cn1nc(C)c(NC(=O)c2cc(C(F)(F)F)nc3ccc(Br)cc23)c1C [Example 1274] |
| 30.9 | COc1cc(C(=O)Nc2c(C)nn(Cc3c(F)cccc3F)c2C)c2ccccc2n1 [Example 42, N-[1-(2,6-difluorobenzyl)-3,5-dimethyl-1H-pyrazol-4-yl]-2-methoxyquinoline-4-carboxamide] |
| 78.5 | Cc1nn(Cc2ccc(C(=O)NCc3cn(C)cn3)cc2)c(C)c1NC(=O)c1cc(C(F)(F)F)nc2ccc(Br)cc12 [Example 1125] |
| 3.7 | Cc1nn(Cc2ccc(F)cc2F)c(C)c1NC(=O)c1cc(C(N)=O)nc2ccc(Br)cc12 [Example 1490] |
| 2.3 | COc1cccc(Cn2nc(C)c(NC(=O)c3cc(C(N)=O)nc4ccc(Br)cc34)c2C)c1 [Example 1458] |
| 108 | C#CCNC(=O)c1ccc(Cn2nc(C)c(NC(=O)c3cc(C(F)(F)F)nc4ccc(Br)cc34)c2C)cc1 [Example 1141] |
| 364 | Cc1nn(Cc2ccc(F)cc2)c(C)c1NC(=O)c1cc(Cl)nc2ccccc12 [Example 99, 2-chloro-N-[1-(4-fluorobenzyl)-3,5-dimethyl-1H-pyrazol-4-yl]quinoline-4-carboxamide] |
| 11.5 | Cc1nn(Cc2ccc(O)cc2)c(C)c1NC(=O)c1cc(C(F)(F)F)nc2c(Cl)cc(Cl)cc12 [Example 1048] |
| 4.9 | Cc1nn(Cc2ncccc2C#N)c(C)c1NC(=O)c1cc(C(N)=O)nc2ccc(Br)cc12 [Example 1408] |
| 173 | Cc1nn(Cc2ccccn2)c(C)c1NC(=O)c1cc(C(F)(F)F)nc2ccc(Br)cc12 [Example 70, 6-bromo-N-[3,5-dimethyl-1-(pyridin-2-ylmethyl)-1H-pyrazol-4-yl]-2-(trifluoromethyl)quinoline-4-carboxamide] |
| 45.9 | Cc1nn(Cc2ccc(C#N)cc2)c(C)c1NC(=O)c1cc(Br)nc2ccccc12 [Example 380, 2-bromo-N-[1-(4-cyanobenzyl)-3,5-dimethyl-1H-pyrazol-4-yl]quinoline-4-carboxamide] |
| 189 | Cc1nn(Cc2ccc(C(=O)NCc3cccnc3)cn2)c(C)c1NC(=O)c1cc(C(F)(F)F)nc2ccc(Br)cc12 [Example 1170] |
| 3 | CCNC(=O)c1ccc(Cn2nc(C)c(NC(=O)c3cc(C(F)(F)F)nc4ccc(Br)cc34)c2C)cc1 [Example 1028] |
